Values joined by “and” are separate entries in the source; they are usually repeats but may differ in a detail not shown here. Identical values can stand only once.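 Step 1: Grow cells in 96-well plates. Step 2: Expose to compound for 48 hours at 5 concentrations. Step 3: Interpolate endpoints linearly; if unreached, use highest concentration. GI50 = concentration required for 50% inhibition of growth. Definition used: TGI = concentration required for complete inhibition of growth.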
Experiments:
Experiment in all cases: NCI anticancer screen, dose series, 48 h
[1] = tested on: SF-268 CNS
[2] = tested on: NCI-H522 lung
[3] = tested on: SK-MEL-28 melanoma
[4] = tested on: ACHN renal
[5] = tested on: CCRF-CEM leukemia
[6] = tested on: CAKI-1 renal
[7] = tested on: A549 NSCLC
[8] = tested on: UACC-257 melanoma
[9] = tested on: HL-60(TB) leukemia
[10] = tested on: M14 melanoma

SMILES: C/C(=N\N=C(N)N)C(CN(CC(C)C)CC(C)C)C(=O)Nc1ccc(C)cc1C (stereo not given)
- TGI [1]: > 100 µM
- TGI [2]: > 100 µM
- TGI [3]: > 100 µM
- TGI [4]: > 100 µM
- TGI [5]: > 100 µM
- TGI [6]: > 100 µM
- TGI [7]: > 100 µM
- TGI [8]: > 100 µM
- TGI [9]: > 100 µM
- TGI [10]: > 100 µM

SMILES: COc1cc2oc(=O)cc(C)c2cc1[N+](=O)[O-]
- TGI [1]: 45 µM
- TGI [2]: 26.3 µM
- TGI [3]: 64.6 µM
- TGI [4]: > 100 µM
- TGI [5]: > 100 µM
- TGI [6]: > 51.5 µM
- TGI [7]: > 100 µM
- TGI [8]: 33.5 µM
- TGI [9]: 44 µM
- TGI [10]: 37.9 µM

SMILES: CN(C)CCCCN1CCc2c(n(C)c3ccccc23)C1=O
- TGI [1]: > 76.3 µM and 57.6 µM
- TGI [2]: > 82 µM
- TGI [3]: 39.7 µM and 31.4 µM
- TGI [4]: > 100 µM
- TGI [5]: > 100 µM
- TGI [6]: > 73.4 µM and 65.3 µM
- TGI [7]: > 93.5 µM
- TGI [8]: 28.7 µM and 31.4 µM
- TGI [9]: > 100 µM
- TGI [10]: 36.8 µM and 34 µM

SMILES: O=C1C2C(C(=O)N1O)N(Cc1ccccc1)C(=O)N2Cc1ccccc1 (stereo not given)
- TGI [1]: > 100 µM
- TGI [2]: > 100 µM
- TGI [3]: > 100 µM
- TGI [4]: > 100 µM
- TGI [5]: > 100 µM
- TGI [6]: > 100 µM
- TGI [7]: > 100 µM
- TGI [8]: > 100 µM
- TGI [9]: > 100 µM
- TGI [10]: > 100 µM

SMILES: Cn1c(=O)oc2cc(C(=O)CSC(=S)N3CCCCCC3)ccc21
- TGI [1]: > 100 µM
- TGI [2]: > 100 µM
- TGI [3]: > 100 µM
- TGI [4]: > 100 µM
- TGI [5]: > 100 µM
- TGI [6]: > 100 µM
- TGI [7]: > 100 µM
- TGI [8]: > 100 µM
- TGI [9]: > 100 µM
- TGI [10]: > 100 µM

SMILES: O=[N+]([O-])c1cnc(Sc2ccncn2)c([N+](=O)[O-])c1
- GI50 [1]: 16 µM
- TGI [1]: 30.7 µM
- GI50 [2]: 1.82 µM
- TGI [2]: 3.45 µM
- GI50 [3]: 15.6 µM
- TGI [3]: 29.7 µM
- GI50 [4]: 1.77 µM
- TGI [4]: 3.27 µM
- GI50 [5]: 1.21 µM
- TGI [5]: 4.47 µM
- GI50 [6]: 1.6 µM
- TGI [6]: 3.07 µM
- GI50 [7]: 32.6 µM
- TGI [7]: > 100 µM
- GI50 [8]: 1.78 µM
- TGI [8]: 3.38 µM
- GI50 [9]: 23.1 µM
- TGI [9]: 62.9 µM
- GI50 [10]: 5.81 µM
- TGI [10]: 19 µM

SMILES: c1ccc(N=C2c3ccccc3CN2c2ccccc2)cc1
- TGI [1]: > 100 µM
- TGI [2]: > 100 µM
- TGI [3]: > 100 µM
- TGI [4]: > 100 µM
- TGI [5]: > 100 µM
- TGI [6]: > 100 µM
- TGI [7]: > 100 µM
- TGI [8]: > 100 µM
- TGI [9]: > 100 µM
- TGI [10]: > 100 µM

SMILES: CCC/C(=N\NC(=S)N1CCN(c2ccccn2)CC1)c1ccccn1
- TGI [1]: > 10 µM and 1.85 µM
- TGI [2]: 0.307 µM
- TGI [3]: > 10 µM and 1.47 µM
- GI50 [4]: 0.0156 µM
- TGI [4]: > 3.16 µM and 1.24 µM
- GI50 [5]: < 0.001 µM
- TGI [5]: 0.0216 µM and 0.0281 µM
- GI50 [6]: 0.0143 µM
- TGI [6]: > 5.37 µM and 1.92 µM
- GI50 [7]: 0.032 µM
- TGI [7]: > 3.16 µM and 1.93 µM
- TGI [8]: 0.224 µM and 1.87 µM
- TGI [9]: 0.0458 µM
- GI50 [10]: 0.122 µM
- TGI [10]: 0.318 µM

SMILES: C[Si](C)(C)C#CCO[Si](C)(C)C
- TGI [1]: > 89.3 µM
- TGI [2]: 29.9 µM
- TGI [3]: > 100 µM
- TGI [4]: > 100 µM
- TGI [5]: > 64 µM
- TGI [6]: > 100 µM
- TGI [7]: > 100 µM
- TGI [8]: > 100 µM
- TGI [9]: > 61 µM
- TGI [10]: > 100 µM

SMILES: CCOC(=N)CC(=O)Nc1ccc(Cl)cc1
- TGI [1]: > 100 µM
- TGI [2]: > 100 µM
- TGI [3]: > 100 µM
- TGI [4]: > 100 µM
- TGI [5]: > 100 µM
- TGI [6]: > 100 µM
- TGI [7]: > 100 µM
- TGI [8]: > 100 µM
- TGI [9]: > 100 µM
- TGI [10]: > 100 µM

SMILES: CNc1ccccc1C(=O)N/N=C/C=C/c1ccccc1
- GI50 [1]: 7.23 µM
- TGI [1]: > 100 µM
- GI50 [2]: 0.565 µM
- TGI [2]: 11.3 µM
- GI50 [3]: 6.88 µM
- TGI [3]: > 100 µM
- GI50 [4]: 11.8 µM
- TGI [4]: > 100 µM
- GI50 [5]: 2.39 µM
- TGI [5]: 97 µM
- GI50 [6]: 2.79 µM
- TGI [6]: > 100 µM
- GI50 [7]: 1.06 µM
- TGI [7]: > 100 µM
- GI50 [8]: 11.4 µM
- TGI [8]: 72.1 µM
- GI50 [9]: 0.566 µM
- TGI [9]: 18.5 µM
- GI50 [10]: 0.6 µM
- TGI [10]: 24.8 µM

SMILES: S=CN1CCCCC1
- TGI [1]: > 100 µM
- TGI [2]: > 100 µM
- TGI [3]: > 100 µM
- TGI [4]: > 100 µM
- TGI [5]: > 100 µM
- TGI [6]: > 100 µM
- TGI [7]: > 100 µM
- TGI [8]: > 100 µM
- TGI [9]: > 100 µM
- TGI [10]: > 100 µM

SMILES: C/C(CN1C(=O)c2ccccc2C1=O)=N\NS(=O)(=O)c1cccc([N+](=O)[O-])c1
- TGI [1]: > 100 µM
- TGI [2]: > 100 µM
- TGI [3]: > 100 µM
- TGI [4]: > 100 µM
- TGI [5]: > 100 µM
- TGI [6]: > 100 µM
- TGI [7]: > 100 µM
- TGI [8]: > 100 µM
- TGI [9]: > 100 µM
- TGI [10]: > 100 µM

SMILES: CN/N=C(/Cc1occc(=O)c1O)C(=O)Nc1ccc(C)c(C)c1
- TGI [1]: > 100 µM
- TGI [2]: > 100 µM
- TGI [3]: > 100 µM
- TGI [4]: > 100 µM
- TGI [5]: > 100 µM
- TGI [6]: > 100 µM
- TGI [7]: > 100 µM
- TGI [8]: > 100 µM
- TGI [9]: > 100 µM
- TGI [10]: > 100 µM

SMILES: CC(O)C1OC(O)C2OC(C)(C)OC12 (stereo not given)
- TGI [1]: > 100 µM
- TGI [2]: > 100 µM
- TGI [3]: > 100 µM
- TGI [4]: > 100 µM
- TGI [5]: > 100 µM
- TGI [6]: > 100 µM
- TGI [7]: > 100 µM
- TGI [8]: > 100 µM
- TGI [9]: > 100 µM
- TGI [10]: > 100 µM

SMILES: Nc1c(C(=O)Nc2ccccc2)sc2nc3c(cc12)CCCCCC3
- GI50 [1]: 1.14 µM
- TGI [1]: 20.1 µM
- GI50 [2]: 0.271 µM
- TGI [2]: 1.29 µM
- GI50 [3]: 1.1 µM
- TGI [3]: 21.8 µM
- GI50 [4]: 0.887 µM
- TGI [4]: 14 µM
- GI50 [5]: 0.345 µM
- TGI [5]: > 100 µM
- GI50 [6]: 0.526 µM
- TGI [6]: 16 µM
- GI50 [7]: 0.467 µM
- TGI [7]: 20.1 µM
- GI50 [8]: 3.1 µM
- TGI [8]: 28.9 µM
- GI50 [9]: 0.299 µM
- TGI [9]: 4.55 µM
- GI50 [10]: 0.233 µM
- TGI [10]: 3.15 µM
